The text below walks through data of publication PMC11190208, “Bacterial c-di-GMP triggers metamorphosis of mussel larvae through a STING receptor” (NPJ Biofilms and Microbiomes, 2024).

The experiment concerns the target T1, McSTING (Mytilus coruscus, UniProt A0A7U0FWW1).
T1 construct: gene STING-3; full-length 1-716aa, pColdIII vector, expressed in E. coli Rosetta
Kind of experiment: SPR (OpenSPR, McSTING immobilised on COOH chip). In kind it is binding. An excerpt: SPR (OpenSPR, McSTING immobilised on COOH chip) on McSTING | concentration-dependent binding of the recombinant protein McSTING to synthetic c-di-GMP with a KD of […]

Usually Kd stands for the constant that tells how readily two partners part at equilibrium.

T1 sequence (A0A7U0FWW1 entry or part of it): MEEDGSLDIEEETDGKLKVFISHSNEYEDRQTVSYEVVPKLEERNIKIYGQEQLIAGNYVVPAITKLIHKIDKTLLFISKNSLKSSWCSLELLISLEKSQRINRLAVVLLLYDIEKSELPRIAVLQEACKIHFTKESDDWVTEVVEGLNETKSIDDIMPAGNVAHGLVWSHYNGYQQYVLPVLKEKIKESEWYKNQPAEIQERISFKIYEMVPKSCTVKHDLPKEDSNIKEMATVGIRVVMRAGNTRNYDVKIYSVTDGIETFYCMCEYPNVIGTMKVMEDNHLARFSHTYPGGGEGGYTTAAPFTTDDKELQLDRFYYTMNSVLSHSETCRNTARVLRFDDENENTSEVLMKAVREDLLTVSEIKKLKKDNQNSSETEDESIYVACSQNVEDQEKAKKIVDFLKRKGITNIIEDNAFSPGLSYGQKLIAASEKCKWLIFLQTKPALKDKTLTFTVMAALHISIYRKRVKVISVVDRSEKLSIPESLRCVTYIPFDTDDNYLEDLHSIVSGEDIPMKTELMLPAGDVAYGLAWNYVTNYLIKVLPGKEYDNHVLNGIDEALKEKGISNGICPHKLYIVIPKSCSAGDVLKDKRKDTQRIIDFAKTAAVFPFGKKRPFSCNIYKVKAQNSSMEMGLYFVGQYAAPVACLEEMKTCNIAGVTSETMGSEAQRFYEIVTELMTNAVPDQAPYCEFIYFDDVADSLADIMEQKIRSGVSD

`Nc1nc2c(ncn2[C@@H]2O[C@@H]3CO[P@](=O)(O)O[C@H]4[C@@H](O)[C@H](n5cnc6c(=O)[nH]c(N)nc65)O[C@@H]4CO[P@](=O)(O)O[C@H]3[C@H]2O)c(=O)[nH]1` [c-di-GMP] came in with a Kd of 42.7 µM.
